Experimental data from patent US7763615B2, “Ecteinascidin analogs for use as antitumour agents” (priority 2001, dated 2010).
Converted amounts (≈) assume the structure as drawn. Like-named read-outs stand apart in the source and are kept apart here.

Assays:
CYP3A4 = CYP3A4 (Homo sapiens, UniProt P08684); assay: in vitro; conditions: CYP3A4 (% inhibition)
[1] = s9, 60 min, 1 μM
[2] = system: L8, normal rat skeletal muscle cells; conditions: 24 h
Procedure: (§2) In order to assess the cytotoxicity of the drugs to normal cells, we used 96 well plates plated at a density of 5000 cells per well (except for the FDC-P1 which were plated at 12,000 cells per well) with normal cell lines (ATCC, Table 1) maintained as per the directions of the ATCC: AML-12, normal mouse liver cells; NRK-52E, normal rat kidney cells; L8, normal rat skeletal muscle cells; FDC-P1, normal mouse myelogeous stem cells; and H9c2 (2-1), normal rat cardiac muscle cells. The cells in each plate were permitted to settle overnight before adding the test drug.
(§3) To each well (100 μl medium) 10 μl of drug in media was added at varying concentrations (1×10-10-0.01 mg/ml final concentration) and further incubated overnight at 37° C. with 5% CO2. After 24 h the following assays were performed. All experiments were repeated at least 3 times and were assayed in duplicate.
(§4) MTS assay (CellTiter 96 aqueous) was performed according to the manufacturer's (Promega) directions (for all cell types). Cell viability (mitochondrial activity) is determined via enzymatic conversion of the formazan substrate.

MEL-28 = assay: cells; format: cell-based; conditions: Homo sapiens, SK-MEL-28, 48 h; for GI50 / IC (TGI): MEL-28, 48 hours exposure, SRB; for CC50: read-out: LC50, MEL-28, 48 hours exposure, SRB
Outline: (§1)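 Continuous 48 h drug exposure of attached human cancer cells (5×10^3/well, RPMI 1640, 10% FBS), doses 10 to 10^−8 μg/ml. Endpoint is SRB staining after TCA fixation, read at 490 nm. GI, TGI and LC calculated from triplicate means.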

MCF = assay: cells; format: cell-based; conditions: Homo sapiens; for CC50: read-out: LC50; for IC (TGI): read-out: TGI
Outline: as §1

MB231 = assay: cells; format: cell-based; conditions: Homo sapiens; for CC50: read-out: LC50; for IC (TGI): read-out: TGI
Outline: as §1

DU145 = assay: cells; format: cell-based; conditions: Homo sapiens, DU-145, 48 h; for GI50 / IC (TGI): DU145, 48 hours exposure, SRB; for CC50: read-out: LC50, DU145, 48 hours exposure, SRB
Outline: as §1

A498 = assay: cells; format: cell-based; conditions: Homo sapiens; for CC50: A498, 48 h, read-out: LC50; for GI50 / IC (TGI): A498, 48 hours exposure, SRB
Outline: as §1

HT29 = assay: cells; format: cell-based; conditions: Homo sapiens, HT-29, 48 h; for GI50 / IC (TGI): HT29, 48 hours exposure, SRB; for CC50: read-out: LC50, HT29, 48 hours exposure, SRB
Outline: as §1

A549 = assay: cells; format: cell-based; conditions: Homo sapiens, A549, 48 h; for IC (TGI): read-out: TGI; for CC50: read-out: LC50, A549, 48 hours exposure, SRB
Outline: as §1

SW-620 = assay: cells; format: cell-based; conditions: Homo sapiens; for CC50: SW-620, 48 h, read-out: LC50; for IC (TGI) / GI50: SW-620, 48 hours exposure, SRB; for GI50: read-out: GI50
Outline: as §1

physchem [3] = conditions: pH 7.4, aqueous buffer, Solubility Dulbecco's PBS pH 7.4
physchem [4] = conditions: pH 7.4, log D n-Octanol-Dulbecco's PBS pH 7.4
[5] = system: FDC-P1, normal mouse myelogeous stem cells; conditions: 24 h
Procedure: as §2, §3, §4

[6] = system: H9c2 (2-1), normal rat cardiac muscle cells; conditions: 24 h
Procedure: as §2, §3, §4

[7] = system: AML-12, normal mouse liver cells; conditions: 24 h
CYP2D6 = CYP2D6 (Homo sapiens, UniProt P10635); assay: in vitro; conditions: CYP2D6 (% inhibition)
Procedure: For CYP2D6 inhibition assay, the compound are tested at 10 μM in duplicate with a 0.25% final concentration of both methanol and acetonitrile in presence of the fluorescent substrate AMMC (3-[2-N,N-diethyl-N-methylammonium)ethyl]-7-methoxy-4-methylcoumarin) at the concentration of 1.5 μM). The conversion of the AMMC in AHMC (3-[2-N,N-diethyl-N-methylammonium)ethyl]-7-hydroxy-4-methylcoumarin) is determined spectrofluorimetry after incubation with the enzyme during 450 min at 37° C.
For both assays, the fluorescent intensity measured at t=0 is subtracted from that measured after the appropriate incubation time. The ratio of signal-to-noise is calculated by comparing the fluorescence in incubations containing the test compound to the control samples containing the same solvent vehicle. The percent of control activity is calculated and reported as percent inhibition.

[8] = system: NRK-52E, normal rat kidney cells; conditions: 24 h
Procedure: as §2, §3, §4

in vitro = conditions: human, Caco-2
Source text: The intestinal epithelium permeability is a critical characteristic that determines the rate and extent of human absorption and ultimately the bioavailability of a drug candidate. Caco-2 permeability assay allows a rapid assessment of membrane permeability and thus helps to rank-order compounds in terms of their absorption potential.
The Caco-2 cell line is a human colon adenocarcinoma cell line that differentiates in culture and resembles the epithelial lining of the human small intestine.
The apparent permeability coefficients (Papp) was determined in the apical-to-basolateral (A-to-B) direction across the cell monolayers (TC-7 sub-clone of the Caco-2) cultured on polycarbonate membrane filters. Compounds were tested at 50 μM with at a final DMSO concentration of 1%. Samples were analyzed by HPLC-MS or HPLC-MS/MS.
The test compound was added to the apical side and the Papp was determined based on the rate of appearance of the test compound in the basolateral side after 2 h-incubation. Two reference compounds, propranolol (highly permeable) and ranitidine (poorly permeable), are tested in each assay as controls.

(HEPG2) = conditions: human, 24 h, 30 μM
[9] = A549, 48 hours exposure, SRB, read-out: GI50

Sequence of CYP3A4 (P08684 whole entry): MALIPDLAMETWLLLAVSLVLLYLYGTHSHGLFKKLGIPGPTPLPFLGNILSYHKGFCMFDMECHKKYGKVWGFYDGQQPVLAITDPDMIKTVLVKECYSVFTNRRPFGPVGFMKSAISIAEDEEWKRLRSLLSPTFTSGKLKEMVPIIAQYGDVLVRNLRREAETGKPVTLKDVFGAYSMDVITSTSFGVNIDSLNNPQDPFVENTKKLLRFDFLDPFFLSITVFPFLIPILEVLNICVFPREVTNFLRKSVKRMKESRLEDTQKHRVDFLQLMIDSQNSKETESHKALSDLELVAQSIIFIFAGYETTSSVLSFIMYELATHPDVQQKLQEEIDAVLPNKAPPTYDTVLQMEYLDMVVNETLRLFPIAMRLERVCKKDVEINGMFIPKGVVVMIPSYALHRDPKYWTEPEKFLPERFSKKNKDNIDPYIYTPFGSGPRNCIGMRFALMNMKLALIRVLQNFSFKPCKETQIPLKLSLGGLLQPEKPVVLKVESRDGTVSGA
Sequence of CYP2D6 (P10635 whole entry): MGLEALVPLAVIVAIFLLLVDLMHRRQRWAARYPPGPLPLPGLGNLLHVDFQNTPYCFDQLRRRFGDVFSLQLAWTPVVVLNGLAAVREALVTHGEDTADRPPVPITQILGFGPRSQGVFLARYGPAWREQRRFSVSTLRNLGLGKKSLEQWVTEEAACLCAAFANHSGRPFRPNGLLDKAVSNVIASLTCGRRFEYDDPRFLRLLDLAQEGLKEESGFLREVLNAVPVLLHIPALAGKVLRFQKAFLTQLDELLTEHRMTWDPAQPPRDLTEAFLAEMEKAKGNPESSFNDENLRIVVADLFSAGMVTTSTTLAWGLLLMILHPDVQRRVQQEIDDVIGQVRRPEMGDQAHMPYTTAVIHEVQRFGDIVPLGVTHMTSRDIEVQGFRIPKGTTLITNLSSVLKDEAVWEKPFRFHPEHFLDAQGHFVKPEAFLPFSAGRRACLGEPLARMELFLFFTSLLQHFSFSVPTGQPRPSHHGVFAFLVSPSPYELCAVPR

SMILES | inhibition at 30 min, 10 µM (CYP3A4) [%] | Human Liver S9 Metabolic Stability (% remaining) [1] [% remaining] | Skeletal [2] | GI50 (MEL-28) [nM] | IC (TGI) (MEL-28) [nM] | CC50 (MEL-28) [nM] | CC50 (MCF; 48 h) [nM] | GI50 (MCF; MCF, 48 hours exposure, SRB) [nM] | CC50 (MB231; 48 h) [nM] | GI50 (MB231; MB231, 48 hours exposure, SRB) [nM] | GI50 (DU145) [nM] | IC (TGI) (DU145) [nM] | CC50 (DU145) [nM] | CC50 (A498) [nM] | GI50 (A498) [nM] | IC (TGI) (A498) [nM] | GI50 (HT29) [nM] | IC (TGI) (HT29) [nM] | CC50 (HT29) [nM] | CC50 (A549) [nM] | further results
COc1ccc2[nH]c3c(c2c1)CCN[C@]31CS[C@@H]2c3c(OC(C)=O)c(C)c4c(c3[C@H](COCC1=O)N1C2[C@H]2c3c(cc(C)c(OC)c3O)C[C@@H]([C@@H]1O)N2C)OCO4 (stereo partly shown) [Compound 27] | 53 | 7 | 1.54E−08 | 0.255 | 0.637 | 1.27 | 11.5 | 0.255 | 12.7 | 0.255 | 0.0255 | 0.0892 | 3.82 | 1.27 | 0.255 | 0.51 | 0.255 | 0.764 | 1.15 | 6.37 | IC (TGI) (MCF; 48 h): 1.27 nM; IC (TGI) (MB231; MB231, 48 hours exposure, SRB): 6.37 nM; GI50 (A549; [9]): 0.255 nM; IC (TGI) (A549; A549, 48 hours exposure, SRB): 0.892 nM; CC50 (SW-620): 1.15 nM; IC (TGI) (SW-620): 0.637 nM; GI50 (SW-620): 0.255 nM; solubility (physchem [3]): 2.99 µM (≈ 2.39 µg/mL); logD at 60 min (physchem [4]): > 5; Myelo [5]: 1.75E−08; Heart [6]: 9.93E−08; Liver [7]: 1.48E−08; inhibition at 450 min, 10 µM (CYP2D6): 13%; Kidney [8]: 1.01E−08; Papp A→B at 2 h, 50 μM (in vitro): < 1.18 ×10⁻⁶ cm/s
COc1c(C)cc2c(c1O)[C@@H]1C3[C@@H]4SC[C@]5(NCCc6c5[nH]c5ccc(OCc7ccccc7)cc65)C(=O)COC[C@@H](c5c6c(c(C)c(OC(C)=O)c54)OCO6)N3[C@@H](O)[C@H](C2)N1C (stereo partly shown) [Compound 29] | 55 | 9 | 3.29E−07 | 23.2 | 34.8 | 81.3 | 116 | 23.2 | 116 | 23.2 | 23.2 | 34.8 | 92.9 | 116 | 3.48 | 11.6 | 23.2 | 69.7 | 105 | 92.9 | IC (TGI) (MCF; MCF, 48 hours exposure, SRB): 34.8 nM; IC (TGI) (MB231; MB231, 48 hours exposure, SRB): 46.5 nM; GI50 (A549; [9]): 23.2 nM; IC (TGI) (A549; A549, 48 hours exposure, SRB): 34.8 nM; CC50 (SW-620): 105 nM; IC (TGI) (SW-620): 69.7 nM; GI50 (SW-620): 23.2 nM; Cell Viability (% inhibition) ((HEPG2)): 29 % inhibition; solubility (physchem [3]): 1.59 µM (≈ 1.39 µg/mL); logD at 60 min (physchem [4]): > 4.9; Myelo [5]: 1.79E−08; Heart [6]: 7.22E−08; Liver [7]: 1.59E−08; inhibition at 450 min, 10 µM (CYP2D6): 27%; Kidney [8]: 1.94E−08
COc1c(C)cc2c(c1O)[C@@H]1C3[C@@H]4SC[C@]5(NCCc6c5[nH]c5ccc(O)cc65)C(=O)COC[C@@H](c5c6c(c(C)c(OC(C)=O)c54)OCO6)N3[C@@H](O)[C@H](C2)N1C (stereo partly shown) [Compound 31] | 84 | 17 | 1.35E−08 | 2.59 | 3.89 | 10.4 | 11.7 | 2.59 | 13 | 1.3 | 1.3 | 3.89 | 9.08 | 13 | 2.59 | 6.49 | 3.89 | 7.78 | 13 | 38.9 | IC (TGI) (MCF; MCF, 48 hours exposure, SRB): 5.19 nM; IC (TGI) (MB231; MB231, 48 hours exposure, SRB): 5.19 nM; GI50 (A549; [9]): 2.59 nM; IC (TGI) (A549; A549, 48 hours exposure, SRB): 5.19 nM; CC50 (SW-620): 11.7 nM; IC (TGI) (SW-620): 3.89 nM; GI50 (SW-620): 2.59 nM; Cell Viability (% inhibition) ((HEPG2)): 22 % inhibition; solubility (physchem [3]): 18.3 µM (≈ 14.3 µg/mL); logD at 60 min (physchem [4]): 3.61; Myelo [5]: 3.18E−08; Heart [6]: 6.65E−08; Liver [7]: 1.89E−08; Kidney [8]: 4.27E−08; Papp A→B at 2 h, 50 μM (in vitro): < 0.32 ×10⁻⁶ cm/s
COc1c(C)cc2c(c1O)[C@@H]1C3[C@@H]4SC[C@]5(NCCc6c5[nH]c5cc(F)ccc65)C(=O)COC[C@@H](c5c6c(c(C)c(OC(C)=O)c54)OCO6)N3[C@@H](O)[C@H](C2)N1C (stereo partly shown) [Compound 32] | 83 | 9 | 1.51E−08 | 2.59 | 10.3 | 25.9 | 129 | 9.06 | 90.6 | 2.59 | 1.29 | 2.59 | 3.88 | 51.7 | 2.59 | 9.06 | 7.76 | 25.9 | 103 | 90.6 | IC (TGI) (MCF; MCF, 48 hours exposure, SRB): 25.9 nM; IC (TGI) (MB231; MB231, 48 hours exposure, SRB): 9.06 nM; GI50 (A549): 3.88 nM; IC (TGI) (A549; A549, 48 hours exposure, SRB): 25.9 nM; CC50 (SW-620): 129 nM; IC (TGI) (SW-620): 25.9 nM; GI50 (SW-620): 5.17 nM; Cell Viability (% inhibition) ((HEPG2)): 39 % inhibition; solubility (physchem [3]): 14.3 µM (≈ 11.2 µg/mL); logD at 60 min (physchem [4]): > 4.3; Myelo [5]: 5.25E−07; Heart [6]: 2.42E−07; Liver [7]: 6.00E−07; inhibition at 450 min, 10 µM (CYP2D6): 12%; Kidney [8]: 1.45E−07
COc1c(C)cc2c(c1O)[C@@H]1C3[C@@H]4SC[C@]5(C(=O)COC[C@@H](c6c7c(c(C)c(OC(C)=O)c64)OCO7)N3[C@@H](O)[C@H](C2)N1C)c1[nH]c2ccc(O)cc2c1CCN5C (stereo partly shown) [Compound 33] | 84 | 10 | 1.41E−08 | 0.255 | 0.637 | 1.15 | 11.5 | 1.02 | 12.7 | 0.255 | 0.382 | 0.892 | 3.82 | 1.27 | 0.255 | 0.51 | 0.255 | 0.764 | 1.15 | 5.1 | IC (TGI) (MCF; MCF, 48 hours exposure, SRB): 2.55 nM; IC (TGI) (MB231; 48 h): 1.27 nM; GI50 (A549; [9]): 0.382 nM; IC (TGI) (A549): 1.27 nM; CC50 (SW-620): 10.2 nM; IC (TGI) (SW-620): 1.15 nM; GI50 (SW-620): 0.255 nM; Cell Viability (% inhibition) ((HEPG2)): 32 % inhibition; solubility (physchem [3]): 68.9 µM (≈ 55.1 µg/mL); logD at 60 min (physchem [4]): 3.5; Myelo [5]: 1.92E−08; Heart [6]: 1.27E−06; Liver [7]: 1.05E−08; inhibition at 450 min, 10 µM (CYP2D6): 28%; Kidney [8]: 7.78E−09; Papp A→B at 2 h, 50 μM (in vitro): 7.77 ×10⁻⁶ cm/s
CC(C)NCC(O)COc1cccc2ccccc12 (stereo not shown) [propranolol, reference compound] |  |  |  |  |  |  |  |  |  |  |  |  |  |  |  |  |  |  |  |  | Papp A→B at 2 h, 50 μM (in vitro): > 20 ×10⁻⁶ cm/s
CNC(=C[N+](=O)[O-])NCCSCc1ccc(CN(C)C)o1 [ranitidine, reference compound] |  |  |  |  |  |  |  |  |  |  |  |  |  |  |  |  |  |  |  |  | Papp A→B at 2 h, 50 μM (in vitro): < 5 ×10⁻⁶ cm/s
